These results are taken from PubChem BioAssay (NCI).

The TGI is the concentration at which net growth stops. A higher TGI goes with less potent growth arrest. A word on the GI50: it is the concentration giving 50% growth inhibition.

Among the test systems are A498 renal; UO-31 renal; K-562 leukemia; TK-10 renal; SF-268 CNS; HCT-15 colon; RXF 393 renal; SF-295 CNS; HL-60(TB) leukemia; UACC-62 melanoma; NCI-H522 lung; CCRF-CEM leukemia; DLD-1 colon; KM20L2 colon.
Holding throughout (experiment): DTP human tumour cell line panel, 48 h

Each structure is given as a SMILES string. Several values for one entry are separate records, joined by “and”; a condition that tells them apart may be missing. Equal entries are not always repeated.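 Briefly, cells in 96-well plates were exposed to five compound concentrations for 48 h, and endpoints were estimated by linear interpolation. Abbreviation: GI50, concentration required for 50% inhibition of growth. At the TGI there is no net growth.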 Where only a bound is given, the exact number is not on record here.

Take `COC(=O)CCC(C)C1CCC2C3CCC4CC5CCC4(C)C3(O5)C(Br)C(Br)C12C` (stereo not given): the TGI with A498 renal, in the assay with UO-31 renal, in the assay on K-562 leukemia, with TK-10 renal, in the assay with SF-268 CNS and with HCT-15 colon was greater than 100 µM each time. In addition, the TGI in the assay with RXF 393 renal, in the assay with SF-295 CNS, in the assay on HL-60(TB) leukemia, in the assay with UACC-62 melanoma and with NCI-H522 lung was greater than 100 µM throughout.

In the case of `O=C1CCc2cc3c(cc21)CC1(Cc2cc4c(cc2C1)CCCC4)C3`, the TGI in the assay on A498 renal, with UO-31 renal, in the assay on K-562 leukemia, in the assay on TK-10 renal, in the assay on CCRF-CEM leukemia and in the assay with SF-268 CNS was greater than 100 µM in each case. The TGI in the assay with HCT-15 colon, in the assay with RXF 393 renal, in the assay with SF-295 CNS, in the assay with HL-60(TB) leukemia, in the assay with UACC-62 melanoma and in the assay on NCI-H522 lung was greater than 100 µM in each case.

With `CCOC(=O)/C=C/c1c[nH]c(C(=O)OCC)c1`, the TGI in the assay on A498 renal, in the assay on UO-31 renal, in the assay with K-562 leukemia, with CCRF-CEM leukemia, in the assay with DLD-1 colon and in the assay with SF-268 CNS was greater than 100 µM each time. For the same compound, the TGI in the assay with HCT-15 colon, with KM20L2 colon, in the assay with RXF 393 renal, in the assay on SF-295 CNS, in the assay on HL-60(TB) leukemia and in the assay with UACC-62 melanoma was greater than 100 µM throughout. In the assay on NCI-H522 lung, this compound showed a TGI greater than 100 µM.

For the compound `CC(=O)c1cccc(NC(=O)C(=O)C(C(=O)c2ccccc2F)C2OC(=O)c3ccccc32)c1` (stereo not given), the TGI in the assay with A498 renal is greater than 100 µM; in the assay with UO-31 renal, greater than 100 µM; in the assay with K-562 leukemia, greater than 100 µM; in the assay on TK-10 renal, greater than 100 µM; in the assay on CCRF-CEM leukemia, 49.6 µM; in the assay with DLD-1 colon, greater than 100 µM. The TGI in the assay with SF-268 CNS was greater than 100 µM; in the assay with HCT-15 colon, greater than 100 µM; in the assay with KM20L2 colon, greater than 100 µM; in the assay with RXF 393 renal it was 70 µM; with SF-295 CNS it was greater than 100 µM; in the assay with HL-60(TB) leukemia, 64.8 µM. In addition, the TGI in the assay with UACC-62 melanoma is greater than 100 µM; with NCI-H522 lung it was 56.7 µM.

With `CC(C)CCCC(C)[C@H]1CC[C@H]2[C@@H]3CC[C@H]4C[C@@H](CCC=C(c5cc(Cl)c(O)c(C(=O)O)c5)c5cc(Cl)c(O)c(C(=O)O)c5)CC[C@]4(C)[C@H]3CC[C@]12C` (stereo not given in full) (tested in a mixture with another compound), the TGI was greater than 50 µM in the assay on A498 renal; 27.2 µM in the assay on UO-31 renal; greater than 50 µM in the assay with K-562 leukemia; greater than 50 µM with TK-10 renal; greater than 50 µM in the assay on CCRF-CEM leukemia; greater than 50 µM with SF-268 CNS. In addition, the TGI with HCT-15 colon, in the assay with RXF 393 renal, in the assay with SF-295 CNS, in the assay with HL-60(TB) leukemia, in the assay on UACC-62 melanoma and in the assay with NCI-H522 lung was greater than 50 µM in each case.

As for `Nc1nc(Cl)cc(NCCCCCCCCCCCCNc2cc(Cl)nc(N)n2)n1`, the TGI with A498 renal, with UO-31 renal, with K-562 leukemia, in the assay on TK-10 renal, in the assay on CCRF-CEM leukemia and in the assay on DLD-1 colon was greater than 100 µM each time. In addition, the TGI in the assay with SF-268 CNS was greater than 100 µM; in the assay on HCT-15 colon it was greater than 100 µM; in the assay on KM20L2 colon, greater than 100 µM; in the assay on RXF 393 renal, 44.5 µM; with SF-295 CNS, 32.7 µM; in the assay with HL-60(TB) leukemia, greater than 100 µM. This compound returned a TGI with UACC-62 melanoma greater than 100 µM.

Take `CC[C@](C)(O)C(=O)O[C@H]1C(=O)O[C@@H]2C[C@H]3C(C)=C[C@H](O)[C@@H](O)[C@]3(C)[C@H]3[C@@]4(O)OC[C@]32[C@@H]1[C@@H](C)[C@H]4O`: the TGI in the assay with A498 renal stood at 71.5 µM; with UO-31 renal, 284 µM; with K-562 leukemia it was 48.8 µM; with CCRF-CEM leukemia, 23.9 µM; with DLD-1 colon, 63.6 µM; with SF-268 CNS it was 207 µM. For the same compound, the TGI in the assay on HCT-15 colon came to 221 µM; in the assay on KM20L2 colon it was 189 µM; in the assay with RXF 393 renal it was 2.43 µM; in the assay with SF-295 CNS, 116 µM; with HL-60(TB) leukemia, 43.1 µM; with UACC-62 melanoma, 94.2 µM. The same compound showed a TGI with NCI-H522 lung of 9.8 µM.

Regarding `CCOC(=O)C1=NN(c2ccccc2)C2=CC(C)=NN(C)C(=S)N21`, the TGI with UO-31 renal, in the assay on K-562 leukemia, in the assay with TK-10 renal, with CCRF-CEM leukemia, in the assay on SF-268 CNS and in the assay with HCT-15 colon was greater than 100 µM in each case. In addition, the TGI in the assay on RXF 393 renal, in the assay on SF-295 CNS, in the assay with HL-60(TB) leukemia, in the assay on UACC-62 melanoma and in the assay with NCI-H522 lung was greater than 100 µM throughout.

On to `ClCc1ccc2ccc3ccc(CCl)nc3c2n1`, for which the TGI was 22.4 µM in the assay with A498 renal; 3.21 µM in the assay on UO-31 renal; greater than 100 µM with K-562 leukemia; 8.64 µM in the assay on CCRF-CEM leukemia; 2.89 µM with DLD-1 colon; 55 µM in the assay with SF-268 CNS. For the same compound, the TGI amounted to 4.69 µM with HCT-15 colon; 12 µM in the assay with KM20L2 colon; 3.17 µM in the assay on RXF 393 renal; 5.69 µM with SF-295 CNS; 4.43 µM with HL-60(TB) leukemia; 2.64 µM with UACC-62 melanoma. The compound also returned a TGI in the assay on NCI-H522 lung of 3.44 µM.

For the compound `COc1cc(C2c3cc4c(cc3[C@@H](NCCCN(C)C)[C@H]3COC(=O)C23)OCO4)cc(OC)c1O` (stereo not given in full), the GI50 with A498 renal was 0.0838 µM and 0.19 µM; with K-562 leukemia, 0.831 µM and 0.413 µM; in the assay with TK-10 renal, 0.992 µM and 2.86 µM; with DLD-1 colon, 1.03 µM and 3.78 µM; with SF-268 CNS it was 0.202 µM and 0.591 µM; in the assay on UACC-62 melanoma, 0.112 µM and 0.288 µM. Further, the TGI in the assay with A498 renal was 0.327 µM and 0.696 µM; in the assay on UO-31 renal, 1.1 µM and 1.72 µM; in the assay on K-562 leukemia, > 37.5 µM and 7.84 µM; with TK-10 renal it was 5.17 µM and 7.61 µM; in the assay with DLD-1 colon, 4.01 µM and > 20 µM; in the assay on SF-268 CNS it was 1.51 µM and 7.28 µM. Further, the TGI was 1.69 µM and 4.63 µM with HCT-15 colon; 2.44 µM and 4.44 µM with KM20L2 colon; 0.632 µM and 1.42 µM in the assay with SF-295 CNS; 0.231 µM and 0.245 µM with HL-60(TB) leukemia; 0.643 µM and 0.924 µM in the assay with UACC-62 melanoma; 1.65 µM and 2.47 µM with NCI-H522 lung.
